Data reported in patent US8822698B2, “Aminoacid derivatives, their process of preparation and their therapeutical uses as inhibitors of oncogenic signals by the Met family” (Universite D'Aix-Marseille, priority 2009, dated 2014).

What was measured:
SF-268 = experiment: NCI 60 human tumour cell line screen; type: cell-based; conditions: conc. 10^−5M; SF-268, CNS Cancer
Description: (§1) Compound of example 4 was screened in the NCI 60 human tumour cell line anticancer drug screen (Shoemaker et al Nature reviews 6, 2006, 813-823).

ACHN = experiment: NCI 60 human tumour cell line screen; type: cell-based; conditions: conc. 10^−5M, Renal Cancer
Description: as §1

MOLT-4 = experiment: NCI 60 human tumour cell line screen; type: cell-based; conditions: conc. 10^−5M; MOLT-4, Leukemia
Description: as §1

OVCAR-4 = experiment: NCI 60 human tumour cell line screen; type: cell-based; conditions: conc. 10^−5M; OVCAR-4, Ovarian Cancer
Description: as §1

KM12 = experiment: NCI 60 human tumour cell line screen; type: cell-based; conditions: conc. 10^−5M; KM12, Colon Cancer
Description: as §1

SNB-19 = experiment: NCI 60 human tumour cell line screen; type: cell-based; conditions: conc. 10^−5M; SNB-19, CNS Cancer
Description: as §1

IGROV 1 = experiment: NCI 60 human tumour cell line screen; type: cell-based; conditions: conc. 10^−5M; IGROV 1, Ovarian Cancer
Description: as §1

SW-620 = experiment: NCI 60 human tumour cell line screen; type: cell-based; conditions: conc. 10^−5M; SW-620, Colon Cancer
Description: as §1

OVCAR-3 = experiment: NCI 60 human tumour cell line screen; type: cell-based; conditions: conc. 10^−5M; OVCAR-3, Ovarian Cancer
Description: as §1

UACC-62 = experiment: NCI 60 human tumour cell line screen; type: cell-based; conditions: conc. 10^−5M; UACC-62, Melanoma
Description: as §1

BT-549 = experiment: NCI 60 human tumour cell line screen; type: cell-based; conditions: conc. 10^−5M; BT-549, Breast Cancer
Description: as §1

HOP-62 = experiment: NCI 60 human tumour cell line screen; type: cell-based; conditions: conc. 10^−5M; HOP-62, Non-Small Cell Lung Cancer
Description: as §1

K-562 = experiment: NCI 60 human tumour cell line screen; type: cell-based; conditions: conc. 10^−5M; K-562, Leukemia
Description: as §1

786-0 = experiment: NCI 60 human tumour cell line screen; type: cell-based; conditions: conc. 10^−5M; 786-0, Renal Cancer
Description: as §1

A549/ATCC = experiment: NCI 60 human tumour cell line screen; type: cell-based; conditions: conc. 10^−5M, Non-Small Cell Lung Cancer
Description: as §1

SF-539 = experiment: NCI 60 human tumour cell line screen; type: cell-based; conditions: conc. 10^−5M; SF-539, CNS Cancer
Description: as §1

EKVX = experiment: NCI 60 human tumour cell line screen; type: cell-based; conditions: conc. 10^−5M, Non-Small Cell Lung Cancer
Description: as §1

HOP-92 = experiment: NCI 60 human tumour cell line screen; type: cell-based; conditions: conc. 10^−5M; HOP-92, Non-Small Cell Lung Cancer
Description: as §1

SNB-75 = experiment: NCI 60 human tumour cell line screen; type: cell-based; conditions: conc. 10^−5M; SNB-75, CNS Cancer
Description: as §1

HCT-116 = experiment: NCI 60 human tumour cell line screen; type: cell-based; conditions: conc. 10^−5M; HCT-116, Colon Cancer
Description: as §1

HL-60(TB) = experiment: NCI 60 human tumour cell line screen; type: cell-based; conditions: conc. 10^−5M, Leukemia
Description: as §1

LOX IMVI = experiment: NCI 60 human tumour cell line screen; type: cell-based; conditions: conc. 10^−5M, Melanoma
Description: as §1

UACC-257 = experiment: NCI 60 human tumour cell line screen; type: cell-based; conditions: conc. 10^−5M; UACC-257, Melanoma
Description: as §1

SR = experiment: NCI 60 human tumour cell line screen; type: cell-based; conditions: conc. 10^−5M, Leukemia
Description: as §1

NCl-H23 = experiment: NCI 60 human tumour cell line screen; type: cell-based; conditions: conc. 10^−5M; NCl-H23, Non-Small Cell Lung Cancer
Description: as §1

HT29 = experiment: NCI 60 human tumour cell line screen; type: cell-based; conditions: conc. 10^−5M; HT29, Colon Cancer
Description: as §1

SK-MEL-28 = experiment: NCI 60 human tumour cell line screen; type: cell-based; conditions: conc. 10^−5M; SK-MEL-28, Melanoma
Description: as §1

SK-MEL-5 = experiment: NCI 60 human tumour cell line screen; type: cell-based; conditions: conc. 10^−5M; SK-MEL-5, Melanoma
Description: as §1

MDA-MB-468 = experiment: NCI 60 human tumour cell line screen; type: cell-based; conditions: conc. 10^−5M; MDA-MB-468, Breast Cancer
Description: as §1

SF-295 = experiment: NCI 60 human tumour cell line screen; type: cell-based; conditions: conc. 10^−5M; SF-295, CNS Cancer
Description: as §1

NCl-H322M = experiment: NCI 60 human tumour cell line screen; type: cell-based; conditions: conc. 10^−5M, Non-Small Cell Lung Cancer
Description: as §1

CAK I-1 = experiment: NCI 60 human tumour cell line screen; type: cell-based; conditions: conc. 10^−5M; CAK I-1, Renal Cancer
Description: as §1

RPMI -8226 = experiment: NCI 60 human tumour cell line screen; type: cell-based; conditions: conc. 10^−5M; RPMI -8226, Leukemia
Description: as §1

NCl•H226 = experiment: NCI 60 human tumour cell line screen; type: cell-based; conditions: conc. 10^−5M; NCl•H226, Non-Small Cell Lung Cancer
Description: as §1

OVCAR-8 = experiment: NCI 60 human tumour cell line screen; type: cell-based; conditions: conc. 10^−5M; OVCAR-8, Ovarian Cancer
Description: as §1

SK-OV-3 = experiment: NCI 60 human tumour cell line screen; type: cell-based; conditions: conc. 10^−5M; SK-OV-3, Ovarian Cancer
Description: as §1

NCl-H460 = experiment: NCI 60 human tumour cell line screen; type: cell-based; conditions: conc. 10^−5M; NCl-H460, Non-Small Cell Lung Cancer
Description: as §1

[1] = Toxicity evaluation in vivo (body and organ weight); set-up: species or system mice
Procedure: The weight of nude mice treated with the compound of example 4 (30 mg kg-1) or vehicle was measured before, during and after treatment. To evaluate the weight of heart, spleen, kidney, and liver, mice were sacrified after 21 days of treatment, organs were dissected, rinsed in PBS, and weight was measured.
We evaluated whether compounds of general formula elicited toxic effects in vivo by following mouse weight before, during and after treatment. […] We also evaluated the weight of heart, spleen, kidney and liver of mice treated with the compound of example 4 or vehicle.

O=C(Cc1cc(C(F)(F)F)cc(C(F)(F)F)c1)N[C@@H](Cc1ccccc1)C(=O)Nc1ccc(-c2cn3c(n2)sc2ccccc23)cc1 [Example 4, (S)-2-(3,5-bis(trifluoromethyl)phenylacetamido)-3-phenyl-N-[4-(imidazo[2,1-b]benzothiazol-2-yl)phenyl]propanamide]
Growth Percent (SF-268): 29.28% | Growth Percent (ACHN): 81.23% | Growth Percent (MOLT-4): 43.46% | Growth Percent (OVCAR-4): −0.79% | Growth Percent (KM12): 16.15% | Growth Percent (SNB-19): 69.84% | Growth Percent (IGROV 1): 13.32% | Growth Percent (SW-620): 12.13% | Growth Percent (OVCAR-3): 2.50% | Growth Percent (UACC-62): 69.45% | Growth Percent (BT-549): 82.05% | Growth Percent (HOP-62): 80.02% | Growth Percent (K-562): 63.10% | Growth Percent (786-0): 60.35% | Growth Percent (A549/ATCC): 31.71% | Growth Percent (SF-539): 36.76% | Growth Percent (EKVX): 15.48% | Growth Percent (HOP-92): 71.89% | Growth Percent (SNB-75): 20.69% | Growth Percent (HCT-116): 21.40% | Growth Percent (HL-60(TB)): 79.95% | Growth Percent (LOX IMVI): 26.60% | Growth Percent (UACC-257): 55.20% | Growth Percent (SR): 58.33% | Growth Percent (NCl-H23): 39.55% | Growth Percent (HT29): 18.28% | Growth Percent (SK-MEL-28): 26.28% | Growth Percent (SK-MEL-5): 10.83% | Growth Percent (MDA-MB-468): 78.09% | Growth Percent (SF-295): 42.18% | Growth Percent (NCl-H322M): 28.70% | Growth Percent (CAK I-1): 53.37% | Growth Percent (RPMI -8226): 66.73% | Growth Percent (NCl•H226): 90.93% | Growth Percent (OVCAR-8): 3.54% | Growth Percent (SK-OV-3): 96.62% | Growth Percent (NCl-H460): −16.59% | weight of heart, spleen, kidney and liver ([1]; after 21 days of treatment, versus vehicle): No differences | weight of mice ([1]; daily treated, 30 mg kg-1, compared to vehicle): No significant changes
